Laboratory results taken from paper doi:10.1101/2022.03.28.485913v1, “A unified in vitro to in vivo fluorescence lifetime screening platform yields amyloid β aggregation inhibitors” (biorxiv, 2022).

Tests used:
amyloid β (1-42) (Aβ42) [1] = biological target: T1, amyloid β (1-42) (Aβ42) (Homo sapiens, UniProt P05067); assay: nanoFLIM aggregation assay, TEM; assay type: biochemical; conditions: 10 μM Aβ42-488, 50% labelled, 10 or 50 μM compound; ThT assay masked by compound fluorescence
T1 construct: gene APP; Amyloid-beta 1-42 peptide cut from APP, 42 residues; synthetic, unlabelled or partly mixed with N-terminally HiLyte Fluor 488 labelled peptide; recombinant 15N peptide (AlexoTech) for NMR; aggregating, starting from monomer
T1 sequence (P05067 672-713): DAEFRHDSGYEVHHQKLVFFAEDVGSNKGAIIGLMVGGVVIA

amyloid β (1-42) (Aβ42) [2] = biological target: T1, amyloid β (1-42) (Aβ42); assay: nanoFLIM aggregation kinetics, fluorescence lifetime in microfluidic droplets, initial rates; assay type: biochemical

Row | SMILES | nanoFLIM aggregation assay, TEM (amyloid β (1-42) (Aβ42) [1]) | IC50 (amyloid β (1-42) (Aβ42) [2])
1 | COC(=O)c1ccccc1NC(=O)c1cc(-c2ccccc2)nc2ccccc12 [MJ001] | MJ001 and MJ042 (Fig. 2a,b), showed weaker, yet significant inhibitory activity | 
2 | O=C(O)c1cc(-c2cccc(Br)c2)nc2ccc([N+](=O)[O-])cc12 [MJ040] |  | 4.3 ± 1.3 µM
3 | O=C(O)c1cc(-c2cc(F)cc(Cl)c2)nc2ccccc12 [MJ042] | MJ001 and MJ042 (Fig. 2a,b), showed weaker, yet significant inhibitory activity | 
